According to US20080234318A1, “Chemical Compounds” (priority 2005, published 2008):
pIC50: −log10 of the molar value.

Tested on: HIV-1
Test: HOS HIV-1 infectivity assay
Format: cell-based
Conditions: Human immunodeficiency virus 1, BAL / IIIB, HOS cells expressing hCXCR4/hCCR5/hCD4/pHIV-LTR-luciferase, virus strain (Ba-L or IIIB) not given, read-out: Activity Level
Description: Compounds were profiled against two HIV-1 viruses, the M-tropic (CCR5 utilizing) Ba-L strain and the T-tropic (CXCR4 utilizing) IIIB strain. Both viruses were propagated in human peripheral blood lymphocytes. Compounds were tested for there ability to block infection of the HOS cell line (expressing hCXCR4/hCCR5/hCD4/pHIV-LTR-luciferase) by either HIV-1 Ba-L or HIV-1 IIIB. Compound cytotoxicity was also examined in the absence of virus addition.
HOS cells (expressing hCXCR4/hCCR5/hCD4/pHIV-LTR-luciferase) were harvested and diluted in Dulbeccos modified Eagles media supplemented with 2% FCS and non-essential amino acid to a concentration of 60,000 cells/ml. The cells were plated into 96-well plates (100 ul per well) and the plates were placed in a tissue culture incubator (37° C.; 5% CO2/95% air) for a period of 24h.
Subsequently, 50 ul of the desired drug solution (4 times the final concentration) was added to each well and the plates were returned to the tissue culture incubator (37° C.; 5% CO2/95% air) for 1h. Following this incubation 50 ul of diluted virus was added to each well (approximately 2 million RLU per well of virus). The plates were returned to the tissue culture incubator (37° C.; 5% CO2/95% air) and were incubated for a further 96h.
Following this incubation the endpoint for the virally infected cultures was quantified following addition of Steady-Glo Luciferase assay system reagent (Promega, Madison, Wis.). Cell viability or non-infected cultures was measured using a CellTiter-Glo luminescent cell viability assay system (Promega, Madison, Wis.). All luminescent readouts are performed on a Topcount luminescence detector (Packard, Meridien, Conn.).

SMILES	pIC50
CN(C)Cc1c(CN(C)[C@H]2CCCc3cccnc32)nc2cccc(N3CCN(C)CC3)n12 [Example 10, (8S)—N-{[3-[(Dimethylamino)methyl]-5-(4-methyl-1-piperazinyl)imidazo[1,2-a]pyridin-2-yl]methyl}-N-methyl-5,6,7,8-tetrahydro-8-quinolinamine]	> 7.00
CCN(CC)Cc1c(CN(C)[C@H]2CCCc3cccnc32)nc2cccc(N3CCN(C)CC3)n12 [Example 11, (8S)—N-{[3-[(Diethylamino)methyl]-5-(4-methyl-1-piperazinyl)imidazo[1,2-a]pyridin-2-yl]methyl}-N-methyl-5,6,7,8-tetrahydro-8-quinolinamine]	> 7.00
CN1CCN(c2cccc3nc(CN(C)[C@H]4CCCc5cccnc54)c(CN4CCCC4)n23)CC1 [Example 12, (8S)—N-Methyl-N-{[5-(4-methyl-1-piperazinyl)-3-(1-pyrrolidinylmethyl)imidazo[1,2-a]pyridin-2-yl]methyl}-5,6,7,8-tetrahydro-8-quinolinamine]	> 7.00
CN1CCN(c2cccc3nc(CN(C)[C@H]4CCCc5cccnc54)c(CN(CCO)CCO)n23)CC1 [Example 13, 2,2′-({[5-(4-Methyl-1-piperazinyl)-2-({methyl[(8S)-5,6,7,8-tetrahydro-8-quinolinyl]amino}methyl)imidazo[1,2-a]pyridin-3-yl]methyl}imino)diethanol]	> 7.00
CCN(CCO)Cc1c(CN(C)[C@H]2CCCc3cccnc32)nc2cccc(N3CCN(C)CC3)n12 [Example 14, 2-(Ethyl{[5-(4-methyl-1-piperazinyl)-2-({methyl[(8S)-5,6,7,8-tetrahydro-8-quinolinyl]amino}methyl)imidazo[1,2-a]pyridin-3-yl]methyl}amino)ethanol]	> 7.00
CN1CCN(c2cccc3nc(CN(C)[C@H]4CCCc5cccnc54)c(CN4CCC(O)C4)n23)CC1 (stereo partly drawn) [Example 15, 1-{[5-(4-Methyl-1-piperazinyl)-2-({methyl[(8S)-5,6,7,8-tetrahydro-8-quinolinyl]amino}methyl)imidazo[1,2-a]pyridin-3-yl]methyl}-3-pyrrolidinol]	> 7.00
CN1CCN(c2cccc3nc(CN(C)[C@H]4CCCc5cccnc54)c(CN4CCOCC4)n23)CC1 [Example 16, (8S)—N-Methyl-N-{[5-(4-methyl-1-piperazinyl)-3-(4-morpholinylmethyl)imidazo[1,2-a]pyridin-2-yl]methyl}-5,6,7,8-tetrahydro-8-quinolinamine]	> 7.00
CNCc1c(CN(C)[C@H]2CCCc3cccnc32)nc2cccc(N3CCN(C)CC3)n12 [Example 19, (8S)—N-Methyl-N-{[3-[(methylamino)methyl]-5-(4-methyl-1-piperazinyl)imidazo[1,2-a]pyridin-2-yl]methyl}-5,6,7,8-tetrahydro-8-quinolinamine]	> 7.00
CCNCc1c(CN(C)[C@H]2CCCc3cccnc32)nc2cccc(N3CCN(C)CC3)n12 [Example 20, (8S)—N-{[3-[(Ethylamino)methyl]-5-(4-methyl-1-piperazinyl)imidazo[1,2-a]pyridin-2-yl]methyl}-N-methyl-5,6,7,8-tetrahydro-8-quinolinamine]	> 7.00
CN1CCN(Cc2c(CN(C)[C@H]3CCCc4cccnc43)nc3cccc(N4CCN(C)CC4)n23)CC1 [Example 21, (8S)—N-Methyl-N-({5-(4-methyl-1-piperazinyl)-3-[(4-methyl-1-piperazinyl)methyl]imidazo[1,2-a]pyridin-2-yl}methyl)-5,6,7,8-tetrahydro-8-quinolinamine]	> 7.00
CN1CCN(c2cccc3nc(CN(C)[C@H]4CCCc5cccnc54)c(CN4CCCCC4)n23)CC1 [Example 22, (8S)—N-Methyl-N-{[5-(4-methyl-1-piperazinyl)-3-(1-piperidinylmethyl)imidazo[1,2-a]pyridin-2-yl]methyl}-5,6,7,8-tetrahydro-8-quinolinamine]	> 7.00
CC(C)NCc1c(CN(C)[C@H]2CCCc3cccnc32)nc2cccc(N3CCN(C)CC3)n12 [Example 23, (8S)—N-Methyl-N-{[3-{[(1-methylethyl)amino]methyl}-5-(4-methyl-1-piperazinyl)imidazo[1,2-a]pyridin-2-yl]methyl}-5,6,7,8-tetrahydro-8-quinolinamine]	> 7.00
CN1CCN(c2cccc3nc(CN(C)[C@H]4CCCc5cccnc54)c(CN)n23)CC1 [Example 24, (8S)—N-{[3-(Aminomethyl)-5-(4-methyl-1-piperazinyl)imidazo[1,2-a]pyridin-2-yl]methyl}-N-methyl-5,6,7,8-tetrahydro-8-quinolinamine]	> 7.00
CC(=O)NCc1c(CN(C)[C@H]2CCCc3cccnc32)nc2cccc(N3CCN(C)CC3)n12 [Example 25, N-{[5-(4-Methyl-1-piperazinyl)-2-({methyl[(8S)-5,6,7,8-tetrahydro-8-quinolinyl]amino}methyl)imidazo[1,2-a]pyridin-3-yl]methyl}acetamide]	> 7.00
CCC(=O)NCc1c(CN(C)[C@H]2CCCc3cccnc32)nc2cccc(N3CCN(C)CC3)n12 [Example 26, N-{[5-(4-Methyl-1-piperazinyl)-2-({methyl[(8S)-5,6,7,8-tetrahydro-8-quinolinyl]amino}methyl)imidazo[1,2-a]pyridin-3-yl]methyl}propanamide]	> 7.00
CC(C)C(=O)NCc1c(CN(C)[C@H]2CCCc3cccnc32)nc2cccc(N3CCN(C)CC3)n12 [Example 27, 2-Methyl-N-{[5-(4-methyl-1-piperazinyl)-2-({methyl[(8S)-5,6,7,8-tetrahydro-8-quinolinyl]amino}methyl)imidazo[1,2-a]pyridine-3-yl]methyl}propanamide]	> 7.00
CCC(C)C(=O)NCc1c(CN(C)[C@H]2CCCc3cccnc32)nc2cccc(N3CCN(C)CC3)n12 (stereo partly drawn) [Example 28, 2-Methyl-N-{[5-(4-methyl-1-piperazinyl)-2-({methyl[(8S)-5,6,7,8-tetrahydro-8-quinolinyl]amino}methyl)imidazo[1,2-a]pyridin-3-yl]methyl}butanamide]	> 7.00
CN1CCN(c2cccc3nc(CN(C)[C@H]4CCCc5cccnc54)c(CNC(=O)c4ccccc4)n23)CC1 [Example 29, 2 N-{[5-(4-Methyl-1-piperazinyl)-2-({methyl[(8S)-5,6,7,8-tetrahydro-8-quinolinyl]amino}methyl)imidazo[1,2-a]pyridin-3-yl]methyl}benzamide]	> 7.00
CN1CCN(c2cccc3nc(CN(C)[C@H]4CCCc5cccnc54)c(CNC(=O)Cc4ccccc4)n23)CC1 [Example 30, N-{[5-(4-Methyl-1-piperazinyl)-2-({methyl[(8S)-5,6,7,8-tetrahydro-8-quinolinyl]amino}methyl)imidazo[1,2-a]pyridin-3-yl]methyl}-2-phenylacetamide]	> 7.00
COC(=O)NCc1c(CN(C)[C@H]2CCCc3cccnc32)nc2cccc(N3CCN(C)CC3)n12 [Example 31, Methyl {[5-(4-methyl-1-piperazinyl)-2-({methyl[(8S)-5,6,7,8-tetrahydro-8-quinolinyl]amino}methyl)imidazo[1,2-a]pyridin-3-yl]methyl}carbamate]	> 7.00
CCOC(=O)NCc1c(CN(C)[C@H]2CCCc3cccnc32)nc2cccc(N3CCN(C)CC3)n12 [Example 32, Ethyl {[5-(4-methyl-1-piperazinyl)-2-({methyl[(8S)-5,6,7,8-tetrahydro-8-quinolinyl]amino}methyl)imidazo[1,2-a]pyridin-3-yl]methyl}carbamate]	> 7.00
CN1CCN(c2cccc3nc(CN(C)[C@H]4CCCc5cccnc54)c(CNC(=O)OCc4ccccc4)n23)CC1 [Example 33, Phenylmethyl {[5-(4-methyl-1-piperazinyl)-2-({methyl[(8S)-5,6,7,8-tetrahydro-8-quinolinyl]amino}methyl)imidazor[1,2-a]pyridin-3-yl]methyl}carbamate]	> 7.00
CN1CCN(c2cccc3nc(CN(C)[C@H]4CCCc5cccnc54)c(CNS(C)(=O)=O)n23)CC1 [Example 34, N-{[5-(4-Methyl-1-piperazinyl)-2-({methyl[(8S)-5,6,7,8-tetrahydro-8-quinolinyl]amino}methyl)imidazo[1,2-a]pyridine-3-yl]methyl}methanesulfonamide]	> 7.00
CCS(=O)(=O)NCc1c(CN(C)[C@H]2CCCc3cccnc32)nc2cccc(N3CCN(C)CC3)n12 [Example 35, N-{[5-(4-Methyl-1-piperazinyl)-2-({methyl[(8S)-5,6,7,8-tetrahydro-8-quinolinyl]amino}methyl)imidazo[1,2-a]pyridin-3-yl]methyl}ethanesulfonamide]	> 7.00
CC(C)S(=O)(=O)NCc1c(CN(C)[C@H]2CCCc3cccnc32)nc2cccc(N3CCN(C)CC3)n12 [Example 36, N-{[5-(4-Methyl-1-piperazinyl)-2-({methyl[(8S)-5,6,7,8-tetrahydro-8-quinolinyl]amino}methyl)imidazo[1,2-a]pyridin-3-yl]methyl}-2-propanesulfonamide]	> 7.00
